# How the values were obtained:
# [1] = tested on: IL6; assay: IL-6 Quantification Assay (ELISA), LPS-stimulated RAW 264.7; type: cell-based; design: inhibition: dose or concentration left out as unconfirmed; conditions: Mus musculus, RAW264.7; read-out: IL-6: % inh.
# [2] = tested on: KRas wild type; assay: Ras GTP Binding Domain Inhibition Assay (Ras Superfamily Assay); conditions: for KRas wild type + SOS: % inh.: with SOS; for KRas wild type: % inh.: without SOS
# Outline: (§1)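 His-tagged GTPases immobilised on nickel-coated plates, pre-incubated with compound (20 μM single point, or serial dilution for IC50) 3 h at room temperature, with or without 10-30 μg/mL Sos (residues 556-1049) in the final hour. Bound Cy3- or Cy5-GTP (100 nM, 45 min) measured by fluorescence after washing.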
# [3] = tested on: KRas G12D mutant; assay: as above; conditions: for KRas G12D mutant + SOS: % inh.: with SOS; for KRas G12D mutant: % inh.: without SOS
# Outline: as §1
# [4] = molecular target: T1, Rac-1 (Homo sapiens, UniProt P63000); assay: as above; conditions: read-out: Rac-1: % inh.
# T1 construct: made in house
# Outline: as §1
# [5] = tested on: Smad2/Smad3 phosphorylation; assay: Phospho-Smad2/3 Inhibition Assay (western blot), Panc-1; type: cell-based, human; conditions: at 10 μM, Panc-1 pancreatic cancer cell line; starred symbols = activation
# Outline: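 Western blotting of lysates (15-50 μg protein) read phosphorylation of Smad2 Ser465/467 and Smad3 Ser423/425. Before lysis, Panc-1 cells got 1 h of 10 ng/ml TGF-b1 following 3 h compound exposure at 37° C (10 μM final, or serial dilutions for IC50, 0.3% DMSO) after overnight 0.5% FBS starvation.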
Structure (SMILES),inhibition [1] [%],KRas wild type + SOS: % inh. ([2]; at 20 μM),KRas wild type: % inh. ([2]; at 20 μM),KRas G12D mutant + SOS: % inh. ([3]; at 20 μM),KRas G12D mutant: % inh. ([3]; at 20 μM),inhibition at 20 µM [4] [%],% inh of Smad2/3 phosphorylation in Panc-1 [5],KRas wild type + SOS: % inh. ([2]; 20 μM compound),KRas wild type: % inh. ([2]; 20 μM compound),KRas G12D mutant + SOS: % inh. ([3]; 20 μM compound),KRas G12D mutant: % inh. ([3]; 20 μM compound)
"CO[C@H]1C[C@H](Nc2nc(-c3nccn3C)nn3cc(-c4ccc(OCCN)cc4)c(-c4ccccc4)c23)C1.Cl [Compound 208, 6-(4-(2-Aminoethoxy)phenyl)-N-((1r,3r)-3-methoxycyclobutyl)-2-(1-methyl-1H-imidazol-2-yl)-5-phenylpyrrolo[2,1-f][1,2,4]triazin-4-amine hydrochloride salt]",75 to 100,C (C = 50-75% inhibition),B (B = 26-49% inhibition),C (C = 50-75% inhibition),B (B = 26-49% inhibition),26 to 49,D (D = 76-100% inhibition),–,–,–,–
"COCCNC(=O)c1c(-c2ccn(C)n2)cn2nc(-c3nccn3C)nc(Nc3cc(OC)ccn3)c12 [Compound 176, N-(2-Methoxyethyl)-4-((4-methoxypyridin-2-yl)amino)-2-(1-methyl-1H-imidazol-2-yl)-6-(1-methyl-1H-pyrazol-3-yl)pyrrolo[2,1-f][1,2,4]triazine-5-carboxamide]",75 to 100,–,–,–,–,76 to 100,B (B = 26-45% inhibition),D (D = 76-100% inhibition),D (D = 76-100% inhibition),D (D = 76-100% inhibition),D (D = 76-100% inhibition)
"CCOc1ccc(Nc2nc(-c3nccn3C)nn3cc(-c4ccn(C)n4)c(C)c23)nc1 [Compound 229, N-(5-Ethoxypyridin-2-yl)-5-methyl-2-(1-methyl-1H-imidazol-2-yl)-6-(1-methyl-1H-pyrazol-3-yl)pyrrolo[2,1-f][1,2,4]triazin-4-amine]",26 to 49,D (D = 76-100% inhibition),C (C = 50-75% inhibition),D (D = 76-100% inhibition),D (D = 76-100% inhibition),76 to 100,A* (A* = 1-25% activation),–,–,–,–
"COc1cccc(-c2cn3nc(-c4nccn4C)nc(O)c3c2C)c1Cl [Compound 15, 6-(2-Chloro-3-methoxyphenyl)-5-methyl-2-(1-methyl-1H-imidazol-2-yl)pyrrolo[2,1-f][1,2,4]triazin-4-ol]",50 to 74,–,–,–,–,0,0 (0 = 0% inhibition),A (A = 1-25% inhibition),A (A = 1-25% inhibition),0 (0 = 0% inhibition),A (A = 1-25% inhibition)
"Cc1c(-c2ccn(C)n2)cn2nc(-c3nccn3C)nc(Nc3ccc(OC(F)F)cn3)c12 [Compound 231, N-(5-(Difluorometh-oxy)pyridin-2-yl)-5-methyl-2-(1-methyl-1H-imidazol-2-yl)-6-(1-methyl-1H-pyrazol-3-yl)pyrrolo[2,1-f][1,2,4]triazin-4-amine]",1 to 24,B (B = 26-49% inhibition),B (B = 26-49% inhibition),C (C = 50-75% inhibition),C (C = 50-75% inhibition),76 to 100,D (D = 76-100% inhibition),–,–,–,–

# — US12459951B2, “Compounds that interact with RAS superfamily proteins for treatment of cancers, inflammatory diseases, rasopathies, and fibrotic disease” (SHY Therapeutics, LLC, priority 2022, dated 2025)
